According to patent US20230365546A1, “5-SUBSTITUTED INDOLE 3-AMIDE DERIVATIVES, PREPARATION METHOD AND USE THEREOF” (ORIGIANT PHARMACEUTICAL CO., LTD, priority 2020, published 2023):

Assays:
Assay in all cases: Kinase Profiler 10 μM panel
cKit(h) = cKit(h) (Homo sapiens (Human), UniProt P10721)
Description: (§1) In vitro kinase assays were conducted using Kinase Profiler services provided by Eurofins. The experimental method was as follows: the small molecule compound to be tested (0.001-10 μM), the protein kinase to be tested were incubated with a buffer containing substrate, 10 mM magnesium acetate, and [γ-^33P-ATP], the reaction was started by adding Mg\TPmix, after incubation for a period of time at room temperature, a 3% phosphate solution was added to the buffer to stop the reaction. Subsequently, 10 μL of the reaction mixture was quantitatively pipetted onto P30 filter paper, which was washed three times with 75 mM phosphate solution and then once with methanol. The P30 filter paper was air-dried and scintillation fluid was added for scintillation counting.

NEK11(h) = NEK11(h) (Homo sapiens (Human), UniProt Q8NG66)
Description: as §1

CaMKK1(h) = CaMKK1(h) (Homo sapiens (Human), UniProt Q8N5S9)
Description: as §1

NEK7(h) = NEK7(h) (Homo sapiens (Human), UniProt Q8TDX7)
Description: as §1

DNA-PK(h) = DNA-PK(h) (Homo sapiens (Human), UniProt P78527)
Description: as §1

PKD2(h) = PKD2(h) (Homo sapiens (Human), UniProt Q9BZL6)
Description: as §1

CDK2/cyclinA(h) = CDK2/cyclinA(h) (Homo sapiens (Human), UniProt P24941)
Description: as §1

GRK2(h) = GRK2(h) (Homo sapiens (Human), UniProt P25098)
Description: as §1

Lyn(h) = Lyn(h) (Homo sapiens (Human), UniProt P07948)
Description: as §1

ROCK-I(h) = ROCK-I(h) (Homo sapiens (Human), UniProt Q13464)
Description: as §1

BTK(h) = BTK(h) (Homo sapiens (Human), UniProt Q06187)
Description: as §1

SAPK2b(h) = SAPK2b(h) (Homo sapiens (Human), UniProt Q15759)
Description: as §1

CSRC(h) = CSRC(h) (Homo sapiens (Human), UniProt P12931)
Description: as §1

AAK1(h) = AAK1(h) (Homo sapiens (Human), UniProt Q2M2I8)
Description: as §1

PKCγ(h) = PKCγ(h) (Homo sapiens (Human), UniProt P05129)
Description: as §1

Abl(m) = Abl(m) (Mus musculus (Mouse), UniProt P00520)
Description: as §1

ErbB2(h) = ErbB2(h) (Homo sapiens (Human), UniProt P04626)
Description: as §1

CDK13/cyclinK(h) = CDK13/cyclinK(h) (Homo sapiens (Human), UniProt Q14004); format: biochemical
Description: as §1

SIK(h) = SIK(h) (Homo sapiens (Human), UniProt P57059)
Description: as §1

Met(M1268T)(h) = Met(M1268T)(h) (Homo sapiens (Human), UniProt P08581, M1250T)
Description: as §1

c-RAF(h) = c-RAF(h) (Homo sapiens (Human), UniProt P04049, Y340D/Y341D)
Description: as §1

FGFR2(N549H)(h) = FGFR2(N549H)(h) (Homo sapiens (Human), UniProt P21802, N549H)
Description: as §1

PKCι(h) = PKCι(h) (Homo sapiens (Human), UniProt P41743)
Description: as §1

PhKγ2(h) = PhKγ2(h) (Homo sapiens (Human), UniProt P15735)
Description: as §1

[1] = molecular target: PI3 Kinase (p110b/p85a)(m) (Mus musculus (Mouse), UniProt Q8BTI9)
Description: as §1

MAPKAP-K2(h) = MAPKAP-K2(h) (Homo sapiens (Human), UniProt P49137)
Description: as §1

PKBγ(h) = PKBγ(h) (Homo sapiens (Human), UniProt Q9Y243)
Description: as §1

TTBK2(h) = TTBK2(h) (Homo sapiens (Human), UniProt Q6IQ55)
Description: as §1

Abl (Q252H)(h) = Abl (Q252H)(h) (Homo sapiens (Human), UniProt P00519, Q252H)
Description: as §1

CaMKIIα(h) = CaMKIIα(h) (Homo sapiens (Human), UniProt Q9UQM7)
Description: as §1

CDK2/cyclinE(h) = CDK2/cyclinE(h) (Homo sapiens (Human), UniProt P24941)
Description: as §1

EphB3(h) = EphB3(h) (Homo sapiens (Human), UniProt P54753)
Description: as §1

RIPK1(h) = RIPK1(h) (Homo sapiens (Human), UniProt Q13546)
Description: as §1

ULK3(h) = ULK3(h) (Homo sapiens (Human), UniProt Q6PHR2)
Chain of ULK3(h) (Q6PHR2 whole entry): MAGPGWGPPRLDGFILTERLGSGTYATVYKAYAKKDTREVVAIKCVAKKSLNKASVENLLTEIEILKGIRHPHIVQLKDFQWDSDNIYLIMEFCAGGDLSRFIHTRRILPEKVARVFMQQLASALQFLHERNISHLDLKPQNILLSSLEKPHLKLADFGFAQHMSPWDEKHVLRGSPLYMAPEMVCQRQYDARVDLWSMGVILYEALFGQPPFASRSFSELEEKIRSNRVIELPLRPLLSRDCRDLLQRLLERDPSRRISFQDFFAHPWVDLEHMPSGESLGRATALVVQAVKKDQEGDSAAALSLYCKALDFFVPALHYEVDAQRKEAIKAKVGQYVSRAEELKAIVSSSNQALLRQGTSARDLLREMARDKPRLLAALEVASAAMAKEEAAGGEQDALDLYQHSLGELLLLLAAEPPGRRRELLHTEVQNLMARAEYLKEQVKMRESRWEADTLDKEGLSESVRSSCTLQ
Description: as §1

Chain of SIK(h) (P57059 whole entry): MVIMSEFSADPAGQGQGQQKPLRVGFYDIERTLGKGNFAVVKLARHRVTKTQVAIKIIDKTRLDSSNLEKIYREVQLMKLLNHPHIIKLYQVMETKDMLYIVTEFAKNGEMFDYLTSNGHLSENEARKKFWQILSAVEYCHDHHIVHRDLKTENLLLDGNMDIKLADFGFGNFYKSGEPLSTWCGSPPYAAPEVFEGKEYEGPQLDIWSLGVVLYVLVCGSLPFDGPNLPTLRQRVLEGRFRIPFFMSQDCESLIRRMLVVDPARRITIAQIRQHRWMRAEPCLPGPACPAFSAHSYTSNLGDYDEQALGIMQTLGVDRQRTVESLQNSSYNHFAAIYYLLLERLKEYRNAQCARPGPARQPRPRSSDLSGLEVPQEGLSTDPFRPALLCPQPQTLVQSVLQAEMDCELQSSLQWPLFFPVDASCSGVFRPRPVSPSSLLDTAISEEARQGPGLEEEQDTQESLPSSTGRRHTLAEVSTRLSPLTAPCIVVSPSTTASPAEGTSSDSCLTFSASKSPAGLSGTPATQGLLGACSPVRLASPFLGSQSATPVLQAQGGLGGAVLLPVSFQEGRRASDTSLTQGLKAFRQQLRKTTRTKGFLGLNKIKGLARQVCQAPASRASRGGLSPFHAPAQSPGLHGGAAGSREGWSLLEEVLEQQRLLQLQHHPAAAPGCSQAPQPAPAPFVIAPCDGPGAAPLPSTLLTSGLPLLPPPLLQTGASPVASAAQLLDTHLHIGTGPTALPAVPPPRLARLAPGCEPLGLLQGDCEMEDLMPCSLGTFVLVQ
Chain of cKit(h) (P10721 26-976): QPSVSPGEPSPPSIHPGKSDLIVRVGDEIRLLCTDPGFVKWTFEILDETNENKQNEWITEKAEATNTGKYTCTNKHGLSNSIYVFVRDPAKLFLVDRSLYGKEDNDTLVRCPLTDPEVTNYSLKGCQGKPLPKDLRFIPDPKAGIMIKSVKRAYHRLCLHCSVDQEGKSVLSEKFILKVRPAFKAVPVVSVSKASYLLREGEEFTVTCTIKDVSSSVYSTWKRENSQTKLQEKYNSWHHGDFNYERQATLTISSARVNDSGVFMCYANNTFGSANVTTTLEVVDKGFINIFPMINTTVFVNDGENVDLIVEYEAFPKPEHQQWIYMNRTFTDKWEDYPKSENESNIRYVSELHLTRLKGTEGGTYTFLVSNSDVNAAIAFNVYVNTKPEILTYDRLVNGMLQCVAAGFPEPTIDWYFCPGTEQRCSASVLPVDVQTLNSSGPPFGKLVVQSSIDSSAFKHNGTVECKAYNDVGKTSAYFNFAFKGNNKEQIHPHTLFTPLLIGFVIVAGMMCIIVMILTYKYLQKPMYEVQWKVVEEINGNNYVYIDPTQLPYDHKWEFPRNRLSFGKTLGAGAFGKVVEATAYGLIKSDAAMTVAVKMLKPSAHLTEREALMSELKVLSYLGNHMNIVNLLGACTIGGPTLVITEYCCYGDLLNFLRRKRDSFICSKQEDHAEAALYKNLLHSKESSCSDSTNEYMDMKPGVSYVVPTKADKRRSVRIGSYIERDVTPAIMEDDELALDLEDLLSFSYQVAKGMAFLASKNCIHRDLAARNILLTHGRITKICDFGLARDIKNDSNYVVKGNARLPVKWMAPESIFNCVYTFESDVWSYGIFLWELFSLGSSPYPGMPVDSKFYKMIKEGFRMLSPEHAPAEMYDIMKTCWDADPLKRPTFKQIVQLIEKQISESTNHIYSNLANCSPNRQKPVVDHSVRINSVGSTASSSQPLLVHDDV
Chain of TTBK2(h) (Q6IQ55 whole entry): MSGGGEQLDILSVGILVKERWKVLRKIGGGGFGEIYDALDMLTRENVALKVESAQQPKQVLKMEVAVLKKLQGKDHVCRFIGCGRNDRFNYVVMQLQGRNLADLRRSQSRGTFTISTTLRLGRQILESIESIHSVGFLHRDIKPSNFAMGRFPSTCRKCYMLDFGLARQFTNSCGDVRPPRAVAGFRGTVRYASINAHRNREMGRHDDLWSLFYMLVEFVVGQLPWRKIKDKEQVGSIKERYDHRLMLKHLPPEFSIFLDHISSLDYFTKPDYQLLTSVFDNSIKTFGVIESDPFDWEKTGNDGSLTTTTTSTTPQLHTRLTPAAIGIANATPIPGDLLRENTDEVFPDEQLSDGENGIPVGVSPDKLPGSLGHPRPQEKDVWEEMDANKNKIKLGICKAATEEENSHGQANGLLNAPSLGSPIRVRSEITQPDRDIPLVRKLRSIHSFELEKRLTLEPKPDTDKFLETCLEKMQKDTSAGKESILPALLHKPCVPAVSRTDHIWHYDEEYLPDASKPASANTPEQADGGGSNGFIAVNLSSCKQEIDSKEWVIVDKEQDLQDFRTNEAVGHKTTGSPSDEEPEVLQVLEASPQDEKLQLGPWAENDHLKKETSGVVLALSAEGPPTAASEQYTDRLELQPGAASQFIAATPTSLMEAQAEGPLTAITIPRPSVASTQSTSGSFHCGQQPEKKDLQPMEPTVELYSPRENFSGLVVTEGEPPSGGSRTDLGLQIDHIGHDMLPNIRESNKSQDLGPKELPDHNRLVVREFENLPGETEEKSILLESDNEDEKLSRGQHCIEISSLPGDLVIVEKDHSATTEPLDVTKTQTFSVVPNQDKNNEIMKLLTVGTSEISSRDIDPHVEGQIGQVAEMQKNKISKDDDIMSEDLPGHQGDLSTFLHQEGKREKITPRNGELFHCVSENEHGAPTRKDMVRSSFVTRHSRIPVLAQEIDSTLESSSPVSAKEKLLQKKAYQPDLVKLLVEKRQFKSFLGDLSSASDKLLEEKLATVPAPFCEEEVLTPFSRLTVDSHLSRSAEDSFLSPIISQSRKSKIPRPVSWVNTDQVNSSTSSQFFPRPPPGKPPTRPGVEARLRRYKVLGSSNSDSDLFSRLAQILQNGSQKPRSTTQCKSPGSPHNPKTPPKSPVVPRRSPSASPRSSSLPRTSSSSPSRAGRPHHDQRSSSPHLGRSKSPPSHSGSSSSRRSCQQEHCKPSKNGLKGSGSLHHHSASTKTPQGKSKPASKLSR
Chain of Met(M1268T)(h) (P08581 956-1390 M1250T limits assumed): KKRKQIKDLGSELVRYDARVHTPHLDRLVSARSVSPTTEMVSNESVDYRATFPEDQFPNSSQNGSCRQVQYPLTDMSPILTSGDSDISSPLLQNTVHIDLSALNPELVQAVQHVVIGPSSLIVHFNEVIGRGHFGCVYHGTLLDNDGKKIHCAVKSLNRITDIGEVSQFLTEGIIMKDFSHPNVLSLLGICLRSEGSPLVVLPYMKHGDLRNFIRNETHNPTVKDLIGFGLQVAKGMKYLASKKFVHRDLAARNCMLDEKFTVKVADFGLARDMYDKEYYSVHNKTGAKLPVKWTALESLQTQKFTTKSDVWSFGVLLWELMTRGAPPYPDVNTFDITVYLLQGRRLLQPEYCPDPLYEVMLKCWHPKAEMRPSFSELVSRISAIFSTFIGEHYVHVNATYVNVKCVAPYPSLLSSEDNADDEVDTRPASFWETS
Chain of AAK1(h) (Q2M2I8 whole entry): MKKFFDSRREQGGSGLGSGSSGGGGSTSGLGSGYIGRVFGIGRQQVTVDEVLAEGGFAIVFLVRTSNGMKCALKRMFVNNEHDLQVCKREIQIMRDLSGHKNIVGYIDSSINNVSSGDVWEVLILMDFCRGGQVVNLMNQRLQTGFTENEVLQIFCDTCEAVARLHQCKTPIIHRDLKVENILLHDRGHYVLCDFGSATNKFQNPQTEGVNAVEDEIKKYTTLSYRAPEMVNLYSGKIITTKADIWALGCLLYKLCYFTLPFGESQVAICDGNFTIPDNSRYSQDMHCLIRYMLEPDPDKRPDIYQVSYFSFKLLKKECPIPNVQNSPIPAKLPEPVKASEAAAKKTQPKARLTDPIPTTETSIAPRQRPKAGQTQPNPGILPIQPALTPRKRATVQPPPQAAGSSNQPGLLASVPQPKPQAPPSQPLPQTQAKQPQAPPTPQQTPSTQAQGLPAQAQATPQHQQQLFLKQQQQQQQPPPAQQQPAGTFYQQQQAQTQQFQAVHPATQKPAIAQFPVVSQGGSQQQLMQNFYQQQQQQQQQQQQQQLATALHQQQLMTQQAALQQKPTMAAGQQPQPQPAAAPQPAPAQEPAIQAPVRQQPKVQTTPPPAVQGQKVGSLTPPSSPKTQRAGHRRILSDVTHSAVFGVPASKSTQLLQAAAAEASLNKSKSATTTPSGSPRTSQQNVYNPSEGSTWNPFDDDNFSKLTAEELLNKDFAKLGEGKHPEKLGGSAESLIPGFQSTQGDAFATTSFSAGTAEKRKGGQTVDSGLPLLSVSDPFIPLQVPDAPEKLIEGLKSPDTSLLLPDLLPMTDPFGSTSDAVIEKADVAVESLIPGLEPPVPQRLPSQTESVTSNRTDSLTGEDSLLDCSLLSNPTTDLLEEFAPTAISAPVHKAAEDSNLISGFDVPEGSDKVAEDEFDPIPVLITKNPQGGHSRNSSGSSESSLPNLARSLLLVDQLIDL

## C[C@H](NC(=O)c1cn(C)c2ccc(-c3ccn4nc(NC(=O)C5CC5)nc4c3)cc12)c1cccc(F)c1 [Compound 94, (S)-5-(2-(cyclopropanecarboxamido)-[1,2,4]triazolo[1,5-a]pyridin-7-yl)-N-(1-(3-fluorophenyl)ethyl)-1-methyl-1H-indole-3-carboxamide]
cKit(h)
  Inhibition ratio/%: 21%
NEK11(h)
  Inhibition ratio/%: 44%
CaMKK1(h)
  Inhibition ratio/%: 35%
NEK7(h)
  Inhibition ratio/%: 43%
DNA-PK(h)
  Inhibition ratio/%: 47%
PKD2(h)
  Inhibition ratio/%: 9%
CDK2/cyclinA(h)
  Inhibition ratio/%: 24%
GRK2(h)
  Inhibition ratio/%: 53%
Lyn(h)
  Inhibition ratio/%: 55%
ROCK-I(h)
  Inhibition ratio/%: −10%
BTK(h)
  Inhibition ratio/%: 65%
SAPK2b(h)
  Inhibition ratio/%: 36%
CSRC(h)
  Inhibition ratio/%: −17%
AAK1(h)
  Inhibition ratio/%: 2%
PKCγ(h)
  Inhibition ratio/%: 47%
Abl(m)
  Inhibition ratio/%: 61%
ErbB2(h)
  Inhibition ratio/%: 47%
CDK13/cyclinK(h)
  Inhibition ratio/%: 66%
SIK(h)
  Inhibition ratio/%: 54%
Met(M1268T)(h)
  Inhibition ratio/%: −10%
c-RAF(h)
  Inhibition ratio/%: −13%
FGFR2(N549H)(h)
  Inhibition ratio/%: 12%
PKCι(h)
  Inhibition ratio/%: 54%
PhKγ2(h)
  Inhibition ratio/%: 48%
[1]
  Inhibition ratio/%: 10%
MAPKAP-K2(h)
  Inhibition ratio/%: −1%
PKBγ(h)
  Inhibition ratio/%: 31%
TTBK2(h)
  Inhibition ratio/%: −16%
Abl (Q252H)(h)
  Inhibition ratio/%: 29%
CaMKIIα(h)
  Inhibition ratio/%: 76%
CDK2/cyclinE(h)
  Inhibition ratio/%: 36%
EphB3(h)
  Inhibition ratio/%: 26%
RIPK1(h)
  Inhibition ratio/%: 100%
ULK3(h)
  Inhibition ratio/%: 3%

## C[C@H](NC(=O)c1c[nH]c2ccc(-c3ccc4nc(NC(=O)C5CC5)sc4c3)cc12)c1cccc(F)c1 [Compound 34, (S)-5-(2-(cyclopropanecarboxamido)benzo[d]thiazol-6-yl)-N-(1-(3-fluorophenyl)ethyl)-1H-indole-3-carboxamide]
cKit(h)
  Inhibition ratio: 4%
NEK11(h)
  Inhibition ratio: 35%
CaMKK1(h)
  Inhibition ratio: 74%
NEK7(h)
  Inhibition ratio: 4%
DNA-PK(h)
  Inhibition ratio: 24%
PKD2(h)
  Inhibition ratio: 46%
CDK2/cyclinA(h)
  Inhibition ratio: 11%
GRK2(h)
  Inhibition ratio: −1%
Lyn(h)
  Inhibition ratio: 52%
ROCK-I(h)
  Inhibition ratio: 15%
BTK(h)
  Inhibition ratio: 15%
SAPK2b(h)
  Inhibition ratio: 12%
CSRC(h)
  Inhibition ratio: 43%
AAK1(h)
  Inhibition ratio: 24%
PKCγ(h)
  Inhibition ratio: 7%
Abl(m)
  Inhibition ratio: 99%
ErbB2(h)
  Inhibition ratio: 10%
CDK13/cyclinK(h)
  Inhibition ratio: 19%
SIK(h)
  Inhibition ratio: 21%
Met(M1268T)(h)
  Inhibition ratio: 93%
c-RAF(h)
  Inhibition ratio: 15%
FGFR2(N549H)(h)
  Inhibition ratio: 86%
PKCι(h)
  Inhibition ratio: −4%
PhKγ2(h)
  Inhibition ratio: 5%
[1]
  Inhibition ratio: 15%
MAPKAP-K2(h)
  Inhibition ratio: −7%
PKBγ(h)
  Inhibition ratio: 11%
TTBK2(h)
  Inhibition ratio: 8%
Abl (Q252H)(h)
  Inhibition ratio: 97%
CaMKIIα(h)
  Inhibition ratio: 5%
CDK2/cyclinE(h)
  Inhibition ratio: 9%
EphB3(h)
  Inhibition ratio: 3%
RIPK1(h)
  Inhibition ratio: 100%
ULK3(h)
  Inhibition ratio: 30%
